# Where two headings read alike, the source gives them in different places.
# Key:
# VMAT2 [1] = target: T1, VMAT2 (Rattus norvegicus (Rat), UniProt Q01827); test: [3H]Dopamine ([3H]DA) uptake assay, vesicular preparation; type: biochemical
# VMAT2 [2] = target: T1, VMAT2; details: rat brain synaptic vesicles; read-out: [3H]DTBZ binding (Ki) VMAT2
# [3] = Microsomal stability assay, human liver microsomes; details: for half-life at 0.08 µM / CLint scaled at 0.08 µM: both, human, pooled liver microsomes; for half-life at 0.08 µM: pH 7.4, Microsomal stability assays: Half-life; for CLint scaled at 0.08 µM: pH 7.4, Microsomal stability assays: Clearance
# Protocol: (§1) Each plate holds triplicate samples of two controls (0.4 mM) and up to 14 compounds (0.08 mM) in rat and human liver microsomes. Aliquots of each well of the plate (175 μl of each well) were transferred from the master plate into 5 assay plates. For 0-hr time point, pre-cooled (4° C.) internal standard (437.5 μL, 2 μM caffeine in methanol) was added to the first plate before the reaction starts. NADPH regenerating system solution A (6.05 ml, Fisher Scientific, #NC9255727) was combined with NADPH regenerating system solution B (1.21 ml, Fisher Scientific, #NC9016235) in potassium phosphate buffer (15.8 ml, 0.1 M, pH 7.4, 37° C.). The resulting NADPH solution (43.8 μl) was added to each well of all the 96-well assay plates and mixed with pipette briefly making the final protein and compound concentrations respectively: 0.5 mg/ml, 0.08 μM (0.4 μM for controls). Plates were sealed, and all plates except the 0-hr plate were incubated at 37° C., shaken at a speed of 60 rpm. A single assay plate was tested at each time point: 0.5 hr, 1 hr, 2 hr, and 4 hr. At each time point, 437.5 μL of pre-cooled internal standard was added each well of the plate to quench the reaction. […] 120 μl supernatant was transferred to a 96-well plate, centrifuged again and analyzed by UPLC-MS (Waters Inc., Milford, MA). The compounds and internal standard were detected by selected ion recording (SIR).
# (§2) The amount of material was measured as a ratio of peak area to the internal standard and graphed. Using the slope from the initial linear portion of this curve, the degradation rate constant is calculated using equation [1].
# in vitro = details: both, human, microsomes, pH 7.4, Microsomal stability assays: Clearance
# Protocol: as §1, §2
# hERG channel = hERG channel (Homo sapiens (Human), UniProt Q12809); test: [3H]Dofetilide binding assay, HEK-293 cell membrane preparation; details: [3H]dofetilide, HEK-293 cell membranes; read-out: hERG Binding: Mean Ki ± Standard Deviation
# hERG channel, sequence (Q12809 whole entry): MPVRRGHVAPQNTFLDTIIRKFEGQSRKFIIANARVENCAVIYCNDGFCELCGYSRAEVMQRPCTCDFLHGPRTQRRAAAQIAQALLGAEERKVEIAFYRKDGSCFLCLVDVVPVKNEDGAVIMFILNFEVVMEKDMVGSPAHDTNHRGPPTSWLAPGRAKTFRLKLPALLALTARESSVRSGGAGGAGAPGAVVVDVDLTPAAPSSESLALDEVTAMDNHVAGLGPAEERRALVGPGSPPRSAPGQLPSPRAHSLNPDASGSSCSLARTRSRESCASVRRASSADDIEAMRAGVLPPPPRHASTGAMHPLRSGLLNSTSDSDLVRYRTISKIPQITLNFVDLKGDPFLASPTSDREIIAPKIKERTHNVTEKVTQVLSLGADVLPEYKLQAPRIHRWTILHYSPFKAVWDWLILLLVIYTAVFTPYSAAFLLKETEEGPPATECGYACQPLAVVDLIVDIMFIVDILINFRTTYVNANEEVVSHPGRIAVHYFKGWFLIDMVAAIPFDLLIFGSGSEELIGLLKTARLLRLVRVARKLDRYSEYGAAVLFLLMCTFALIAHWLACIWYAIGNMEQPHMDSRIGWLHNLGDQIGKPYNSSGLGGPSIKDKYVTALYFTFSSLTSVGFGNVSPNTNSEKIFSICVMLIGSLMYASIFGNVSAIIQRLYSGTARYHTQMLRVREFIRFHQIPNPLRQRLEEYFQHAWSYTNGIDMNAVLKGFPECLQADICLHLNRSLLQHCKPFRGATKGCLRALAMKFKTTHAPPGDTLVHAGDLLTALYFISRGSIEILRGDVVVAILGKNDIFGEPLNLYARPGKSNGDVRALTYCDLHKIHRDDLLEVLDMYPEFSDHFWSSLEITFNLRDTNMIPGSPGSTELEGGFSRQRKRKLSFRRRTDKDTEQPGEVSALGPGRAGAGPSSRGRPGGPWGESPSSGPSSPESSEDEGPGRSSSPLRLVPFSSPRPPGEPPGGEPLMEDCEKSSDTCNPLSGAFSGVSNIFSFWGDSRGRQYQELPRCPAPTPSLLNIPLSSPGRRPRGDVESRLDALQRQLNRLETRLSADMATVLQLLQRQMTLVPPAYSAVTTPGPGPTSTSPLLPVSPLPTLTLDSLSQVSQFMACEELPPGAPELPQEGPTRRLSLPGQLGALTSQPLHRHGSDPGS
# Protocol: [^3H]Dofetilide binding assays were conducted using commercially available HEK-293 cell membranes which stably express the hERG channel. Membranes were suspended in assay buffer (50 mM Tris, 10 mM KCl, 1 mM MgCl2, pH 7.4) prior to the experiment. […] Aliquots of the HEK-293 cell membrane suspension which contained 5 μg membrane protein were added to tubes containing assay buffer, 5 nM [^3H]dofetilide and a range of concentrations of analog (10 nM-100 μM). Nonspecific binding was determined in the presence of amitriptyline (1 mM). Samples were incubated for 1 hr. at 24° C., followed by rapid filtration. […] The affinity for the [^3H]dofetilide binding site on the hERG channel expressed in the HEK-293 cellular membrane was determined from the analog concentration response curves.
# [4] = rat striatal synaptic vesicles, read-out: [3H]DA uptake (Ki) VMAT2
# [5] = [3H]DA uptake, rat, read-out: VMAT2 (rat) Inhibition: Mean Ki ± Standard Deviation
SMILES,Ki (VMAT2 [1]; [4]) [nM],Ki (VMAT2 [2]) [nM],half-life at 0.08 µM [3] [h],Ki (VMAT2 [1]; [5]) [nM],CLint scaled at 0.08 µM [3] [mL/min/kg],Ki (hERG channel) [nM],other results
CC(Cc1ccc([N+](=O)[O-])cc1)NCCc1ccccc1 (stereo not shown) [Compound 41],60 ± 7,5100 ± 1200,,,,,
CC(Cc1ccc([N+](=O)[O-])cc1)NCCCc1ccccc1 (stereo not shown) [Compound 42],13 ± 4,2000 ± 300,,,,,
COc1ccc(CCCNC(C)Cc2ccc([N+](=O)[O-])cc2)cc1 (stereo not shown) [Compound 43],8 ± 2,1400 ± 400,,,,,
CC(Cc1ccc(N)cc1)NCCc1ccccc1 (stereo not shown) [Compound 44],210 ± 80,17000,,,,,
CC(Cc1ccc(N)cc1)NCCCc1ccccc1 (stereo not shown) [Compound 45],36 ± 3,2800 ± 700,,,,,
COc1ccc(CC(C)NCCCc2ccccc2)cc1OC (stereo not shown) [Compound 46],140 ± 13,3800 ± 100,,,,,
COc1ccc(CC(C)NCCCCc2ccccc2)cc1OC (stereo not shown) [Compound 47],29 ± 11,1100 ± 100,,,,,
CC(CCc1ccccc1)NCCc1ccccc1 (stereo not shown) [Compound 48],50 ± 4,1600 ± 330,,,,,
CC(CCc1ccccc1)N(C)CCc1ccccc1 (stereo not shown) [Compound 49],84 ± 4,29800 ± 11200,,,,,
CC(CCc1ccccc1)NCCCc1ccccc1 (stereo not shown) [Compound 50],50 ± 12,4810 ± 1130,,,,,
CC(CCc1ccccc1)N(C)CCCc1ccccc1 (stereo not shown) [Compound 51],360 ± 34,17200 ± 6330,,,,,
COc1ccc(CCCNC(C)CCc2ccccc2)cc1 (stereo not shown) [Compound 52],26 ± 2,3200 ± 100,,,,,
COc1ccc(CCCNC(C)CCc2ccc(OC)cc2)cc1 (stereo not shown) [Compound 53],24 ± 6,1500 ± 700,,,,,
"Nc1ccc(CC(CF)NCCCc2ccc(F)cc2)cc1 (stereo not shown) [Compound 80, [N-3-(4-fluorophenyl)-propan-1-yl]-3-(4-aminophenyl)-1-fluoro-2-propylamine]",,,0.7,,,,CLint scaled at 0.08 µM (in vitro): 29.5 mL/min/kg
Fc1ccc(CCCNC(Cc2ccc(F)cc2)C(F)F)cc1 (stereo not shown) [Compound 82],,,0.8,,,,CLint scaled at 0.08 µM (in vitro): 26.3 mL/min/kg
FCC(Cc1ccc(-c2cccnc2)cc1)NCCCc1ccc(F)cc1 (stereo not shown) [Compound 84],,,,,,,Microsomal stability assays: Half-life [3]: 0.1 h; CLint scaled at 0.08 µM (in vitro): 173 mL/min/kg
CC(Cc1ccc([N+](=O)[O-])cc1)NCCCc1ccccc1 (stereo not shown) [Compound 115],,,> 4,19 ± 3.81,< 5.2,285 ± 78.8,

SMILES,Ki (VMAT2 [1]; [4]) [nM],Ki (VMAT2 [2]) [nM],half-life at 0.08 µM [3] [h],Ki (VMAT2 [1]; [5]) [nM],CLint scaled at 0.08 µM [3] [mL/min/kg],Ki (hERG channel) [nM],other results
CC(Cc1ccc([N+](=O)[O-])cc1)NCCCc1ccc(F)cc1 (stereo not shown) [Compound 118],,,> 4,7.08 ± 1.29,< 5.2,206 ± 137,
CC(Cc1ccc([N+](=O)[O-])cc1)NCCCc1ccc(F)cc1 (stereo not shown) [Compound 120],,,,9.85 ± 1.62,,130 ± 25.6,Microsomal stability assays: Clearance [3]: <5.20 mL/min/kg; Microsomal stability assays: Half-life [3]: >4 h
CC(Cc1ccc([N+](=O)[O-])cc1)NCCCc1ccc(Br)cc1 (stereo not shown) [Compound 121],,,> 4,13.4 ± 4.8,< 5.2,80 ± 67.7,
CC(Cc1ccc(F)cc1)NCCCc1ccccc1 (stereo not shown) [Compound 126],,,1.8,19.3 ± 5.14,11.5,2050 ± 773,
CC(Cc1ccc(F)cc1)NCCCc1ccc(Br)cc1 (stereo not shown) [Compound 146],,,> 4,22.1 ± 6.5,< 5.2,546 ± 199,
CC(Cc1ccc(F)cc1)NCCCc1ccnc2ccccc12 (stereo not shown) [Compound 162],,,0.2,30.5 ± 8.59,102,2950 ± 1360,
CC(Cc1ccc(C(F)(F)F)cc1)NCCCc1ccncc1 (stereo not shown) [Compound 165],,,> 4,53.2 ± 6.5,< 5.2,1890 ± 639,
CC(Cc1ccc(F)cc1)NCCCc1ccc(-c2ccnn2C)cc1 (stereo not shown) [Compound 166],,,0.6,46.5 ± 8.97,34.3,2200 ± 251,
CC(Cc1ccncc1)NCCCc1ccc(Br)cc1 (stereo not shown) [Compound 168],,,3.5,41 ± 11.1,6,1780 ± 468,
CC(Cc1ccncc1)NCCCc1ccc(F)cc1 (stereo not shown) [Compound 186],,,4.8,72.4 ± 29.8,4.3,3320 ± 1930,
CC(Cc1ccc(F)cc1)NCCCc1ccc(Cl)cc1 (stereo not shown) [Compound 188],,,4.4,22 ± 7.72,4.7,467 ± 280,
CC(Cc1ccc(F)cc1)NCCCc1ccc(F)cc1 (stereo not shown) [Compound 190],,,3.9,8.28 ± 0.736,5.4,789 ± 221,
CC(Cc1ccccc1)NCCCc1ccncc1 (stereo not shown) [Compound 204],,,3.6,49.1 ± 3.51,5.8,8460 ± 4580,
CC(Cc1ccccc1)NCCCc1ccc(I)cc1 (stereo not shown) [Compound 213],,,,22.2 ± 2.21,,642 ± 168,Microsomal stability assays: Clearance [3]: <5.20 mL/min/kg; Microsomal stability assays: Half-life [3]: >4 h
CC(Cc1ccccc1)NCCCc1ccc(I)cc1 (stereo not shown) [Compound 214],,,,6.86 ± 1.81,,3040 ± 1370,Microsomal stability assays: Clearance [3]: 17.6 mL/min/kg; Microsomal stability assays: Half-life [3]: 1.2 h
CC(Cc1ccccc1)NCCCc1ccc(Br)cc1 (stereo not shown) [Compound 218],,,2.2,14.2 ± 2.17,9.5,421 ± 38.1,
